Results on 15 molecules are retold here after patent publication US10150760B2, “Compounds for use in preparing heterocyclic triazole agonists of the APJ receptor” (AMGEN INC., priority 2016, dated 2018).

One may read the EC50 as the concentration needed to bring the measured effect to its halfway point.

The experiment has as its target human APJ receptor (Homo sapiens (Human), UniProt P35414). The experiment is described as follows: [35S]GTPγS binding assay on membranes from CHO cells stably expressing human APJ receptor. The experiment is classed as biochemical. The following applies: read-out: Activity hAPJ SPA EC50 IP. The method in brief: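 Agonist-driven [35S]GTPγS (0.2 nM) binding was measured over 90 min at room temperature on human APJ-expressing CHO membranes with bead capture, in buffer containing 3 μM GDP, 200 mM NaCl and 5 mM MgCl2 (pH 7.5). Excess unlabelled GTPγS (100 μM) gave nonspecific signal; EC50 from non-linear fits.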
(In general: GTPγS resists hydrolysis and so accumulates on activated G proteins.)

human APJ receptor, sequence (P35414 whole entry): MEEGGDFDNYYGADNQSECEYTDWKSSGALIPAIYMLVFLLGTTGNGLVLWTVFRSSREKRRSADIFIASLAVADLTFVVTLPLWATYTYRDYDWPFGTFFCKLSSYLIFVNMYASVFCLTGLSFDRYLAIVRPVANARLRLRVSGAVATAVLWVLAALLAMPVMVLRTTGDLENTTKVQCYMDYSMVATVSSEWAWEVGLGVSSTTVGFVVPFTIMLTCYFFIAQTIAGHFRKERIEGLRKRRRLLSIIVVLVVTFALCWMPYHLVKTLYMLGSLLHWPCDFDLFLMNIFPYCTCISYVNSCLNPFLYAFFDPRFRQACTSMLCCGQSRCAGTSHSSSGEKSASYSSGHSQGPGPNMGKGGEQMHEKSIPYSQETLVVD

On to `COc1ncnc(OC)c1-n1c(NS(=O)(=O)[C@@H](C)[C@@H](OC(C)C)c2ncc(Cl)cn2)nnc1[C@H]1CCOC1` (single isomer, unassigned) [Example 292.0, (1S,2S)-1-(5-chloropyrimidin-2-yl)-N-(4-(4,6-dimethoxypyrimidin-5-yl)-5-((R)-tetrahydrofuran-3-yl)-4H-1,2,4-triazol-3-yl)-1-isopropoxypropane-2-sulfonamide or (1S,2S)-1-(5-chloropyrimidin-2-yl)-N-(4-(4,6-dimethoxypyrimidin-5-yl)-5-((S)-tetrahydrofuran-3-yl)-4H-1,2,4-triazol-3-yl)-1-isopropoxypropane-2-sulfonamide], for which the EC50 turned out to be 0.018 µM.
With `COc1cccc(OC)c1-n1c(NS(=O)(=O)[C@@H](C)[C@H](OC)c2ncc(Cl)cn2)nnc1[C@H]1CC(=O)N(C)C1` (single isomer, unassigned) [Example 293.0, (1R,2S)-1-(5-chloropyrimidin-2-yl)-N-(4-(2,6-dimethoxyphenyl)-5-((R)-1-methyl-5-oxopyrrolidin-3-yl)-4H-1,2,4-triazol-3-yl)-1-methoxypropane-2-sulfonamide or (1R,2S)-1-(5-chloropyrimidin-2-yl)-N-(4-(2,6-dimethoxyphenyl)-5-((S)-1-methyl-5-oxopyrrolidin-3-yl)-4H-1,2,4-triazol-3-yl)-1-methoxypropane-2-sulfonamide], the EC50 was 0.1 µM.
Then `COc1cccc(OC)c1-n1c(NS(=O)(=O)[C@@H](C)[C@H](OC)c2ncc(Cl)cn2)nnc1[C@@H]1CC(=O)N(C)C1` (single isomer, unassigned) [Example 294.0, (1R,2S)-1-(5-chloropyrimidin-2-yl)-N-(4-(2,6-dimethoxyphenyl)-5-((R)-1-methyl-5-oxopyrrolidin-3-yl)-4H-1,2,4-triazol-3-yl)-1-methoxypropane-2-sulfonamide or (1R,2S)-1-(5-chloropyrimidin-2-yl)-N-(4-(2,6-dimethoxyphenyl)-5-((S)-1-methyl-5-oxopyrrolidin-3-yl)-4H-1,2,4-triazol-3-yl)-1-methoxypropane-2-sulfonamide], with 0.27 µM; and `CO[C@H](c1ncc(Cl)cn1)[C@H](C)S(=O)(=O)Nc1nnc([C@H]2CCOC2)n1C(C)C` (single isomer, unassigned) [Example 297.0, (1R,2S)-1-(5-chloropyrimidin-2-yl)-N-(4-isopropyl-5-((R)-tetrahydrofuran-3-yl)-4H-1,2,4-triazol-3-yl)-1-methoxypropane-2-sulfonamide or (1R,2S)-1-(5-chloropyrimidin-2-yl)-N-(4-isopropyl-5-((S)-tetrahydrofuran-3-yl)-4H-1,2,4-triazol-3-yl)-1-methoxypropane-2-sulfonamide], with 1.47 µM; and `CO[C@H](c1ncc(Cl)cn1)[C@H](C)S(=O)(=O)Nc1nnc([C@H]2CCOC2)n1C(C)C` (single isomer, unassigned) [Example 298.0, (1R,2S)-1-(5-chloropyrimidin-2-yl)-N-(4-isopropyl-5-((R)-tetrahydrofuran-3-yl)-4H-1,2,4-triazol-3-yl)-1-methoxypropane-2-sulfonamide or (1R,2S)-1-(5-chloropyrimidin-2-yl)-N-(4-isopropyl-5-((S)-tetrahydrofuran-3-yl)-4H-1,2,4-triazol-3-yl)-1-methoxypropane-2-sulfonamide], with 1.89 µM.
With `CO[C@H](c1ncc(Cl)cn1)[C@H](C)S(=O)(=O)Nc1nnc([C@H]2CCC(C)(C)O2)n1C(C)C` (single isomer, unassigned) [Example 299.0, (1R,2S)-1-(5-chloropyrimidin-2-yl)-N-(5-((R)-5,5-dimethyltetrahydrofuran-2-yl)-4-isopropyl-4H-1,2,4-triazol-3-yl)-1-methoxypropane-2-sulfonamide or (1R,2S)-1-(5-chloropyrimidin-2-yl)-N-(5-((S)-5,5-dimethyltetrahydrofuran-2-yl)-4-isopropyl-4H-1,2,4-triazol-3-yl)-1-methoxypropane-2-sulfonamide] the figure was 0.94 µM.
As to `CO[C@H](c1ncc(Cl)cn1)[C@H](C)S(=O)(=O)Nc1nnc([C@H]2CCC(C)(C)O2)n1C(C)C` (single isomer, unassigned) [Example 300.0, (1R,2S)-1-(5-chloropyrimidin-2-yl)-N-(5-((R)-5,5-dimethyltetrahydrofuran-2-yl)-4-isopropyl-4H-1,2,4-triazol-3-yl)-1-methoxypropane-2-sulfonamide or (1R,2S)-1-(5-chloropyrimidin-2-yl)-N-(5-((S)-5,5-dimethyltetrahydrofuran-2-yl)-4-isopropyl-4H-1,2,4-triazol-3-yl)-1-methoxypropane-2-sulfonamide], the EC50 came to 1.4 µM.
With `CO[C@H](c1ncc(Cl)cn1)[C@H](C)S(=O)(=O)Nc1nnc([C@H]2COCCO2)n1C(C)C` (single isomer, unassigned) [Example 301.0, (1R,2S)-N-(5-((S)-1,4-dioxan-2-yl)-4-isopropyl-4H-1,2,4-triazol-3-yl)-1-(5-chloropyrimidin-2-yl)-1-methoxypropane-2-sulfonamide or (1R,2S)-N-(5-((R)-1,4-dioxan-2-yl)-4-isopropyl-4H-1,2,4-triazol-3-yl)-1-(5-chloropyrimidin-2-yl)-1-methoxypropane-2-sulfonamide], the EC50 is 2.9 µM.
With `CO[C@H](c1ncc(Cl)cn1)[C@H](C)S(=O)(=O)Nc1nnc([C@H]2COCCO2)n1C(C)C` (single isomer, unassigned) [Example 302.0, (1R,2S)-N-(5-((S)-1,4-dioxan-2-yl)-4-isopropyl-4H-1,2,4-triazol-3-yl)-1-(5-chloropyrimidin-2-yl)-1-methoxypropane-2-sulfonamide or (1R,2S)-N-(5-((R)-1,4-dioxan-2-yl)-4-isopropyl-4H-1,2,4-triazol-3-yl)-1-(5-chloropyrimidin-2-yl)-1-methoxypropane-2-sulfonamide] the figure was 0.71 µM; with `COCCn1c(NS(=O)(=O)[C@@H](C)[C@H](OC)c2ncc(Cl)cn2)nnc1[C@H]1CCOC1` (single isomer, unassigned) [Example 309.0, (1R,2S)-1-(5-chloropyrimidin-2-yl)-1-methoxy-N-(4-(2-methoxyethyl)-5-((R)-tetrahydrofuran-3-yl)-4H-1,2,4-triazol-3-yl)propane-2-sulfonamide or (1R,2S)-1-(5-chloropyrimidin-2-yl)-1-methoxy-N-(4-(2-methoxyethyl)-5-((S)-tetrahydrofuran-3-yl)-4H-1,2,4-triazol-3-yl)propane-2-sulfonamide], 2.6 µM.
With `COCCn1c(NS(=O)(=O)[C@@H](C)[C@H](OC)c2ncc(Cl)cn2)nnc1[C@H]1CCOC1` (single isomer, unassigned) [Example 310.0, (1R,2S)-1-(5-chloropyrimidin-2-yl)-1-methoxy-N-(4-(2-methoxyethyl)-5-((R)-tetrahydrofuran-3-yl)-4H-1,2,4-triazol-3-yl)propane-2-sulfonamide or (1R,2S)-1-(5-chloropyrimidin-2-yl)-1-methoxy-N-(4-(2-methoxyethyl)-5-((S)-tetrahydrofuran-3-yl)-4H-1,2,4-triazol-3-yl)propane-2-sulfonamide] the figure was 0.54 µM; with `COCCn1c(NS(=O)(=O)[C@@H](C)[C@H](OC)c2ncc(Cl)cn2)nnc1[C@@H]1COCCO1` (single isomer, unassigned) [Example 311.0, (1R,2S)-N-(5-((R)-1,4-dioxan-2-yl)-4-(2-methoxyethyl)-4H-1,2,4-triazol-3-yl)-1-(5-chloropyrimidin-2-yl)-1-methoxypropane-2-sulfonamide or (1R,2S)-N-(5-((S)-1,4-dioxan-2-yl)-4-(2-methoxyethyl)-4H-1,2,4-triazol-3-yl)-1-(5-chloropyrimidin-2-yl)-1-methoxypropane-2-sulfonamide], 1.7 µM.
With `COCCn1c(NS(=O)(=O)[C@@H](C)[C@H](OC)c2ncc(Cl)cn2)nnc1[C@@H]1COCCO1` (single isomer, unassigned) [Example 312.0, (1R,2S)-N-(5-((R)-1,4-dioxan-2-yl)-4-(2-methoxyethyl)-4H-1,2,4-triazol-3-yl)-1-(5-chloropyrimidin-2-yl)-1-methoxypropane-2-sulfonamide or (1R,2S)-N-(5-((S)-1,4-dioxan-2-yl)-4-(2-methoxyethyl)-4H-1,2,4-triazol-3-yl)-1-(5-chloropyrimidin-2-yl)-1-methoxypropane-2-sulfonamide] the figure was 1.9 µM.
Regarding `COc1cccc(OC)c1-n1c(NS(=O)(=O)[C@@H](C)[C@H](C)c2ncc(F)cn2)nnc1[C@H]1CCC(C)(C)O1` (single isomer, unassigned) [Example 333.0, (2S,3R)-N-(4-(2,6-dimethoxyphenyl)-5-((R)-5,5-dimethyltetrahydrofuran-2-yl)-4H-1,2,4-triazol-3-yl)-3-(5-fluoropyrimidin-2-yl)butane-2-sulfonamide or (2S,3R)-N-(4-(2,6-dimethoxyphenyl)-5-((S)-5,5-dimethyltetrahydrofuran-2-yl)-4H-1,2,4-triazol-3-yl)-3-(5-fluoropyrimidin-2-yl)butane-2-sulfonamide], the EC50 came to 0.19 µM.
Then `COc1cccc(OC)c1-n1c(NS(=O)(=O)[C@@H](C)[C@H](C)c2ncc(F)cn2)nnc1[C@H]1CCC(C)(C)O1` (single isomer, unassigned) [Example 334.0, (2S,3R)-N-(4-(2,6-dimethoxyphenyl)-5-((R)-5,5-dimethyltetrahydrofuran-2-yl)-4H-1,2,4-triazol-3-yl)-3-(5-fluoropyrimidin-2-yl)butane-2-sulfonamide or (2S,3R)-N-(4-(2,6-dimethoxyphenyl)-5-((S)-5,5-dimethyltetrahydrofuran-2-yl)-4H-1,2,4-triazol-3-yl)-3-(5-fluoropyrimidin-2-yl)butane-2-sulfonamide], with 0.0025 µM.
